Common to all, as to experiment: NCI-60 cell line screen, 48 h
Experiment [1] relates to SK-MEL-2 melanoma.
The test system of experiment [2] is ACHN renal.
Experiment [3] relates to PC-3 prostate.
The subject of experiment [4] is NCI/ADR-RES ovarian.
For experiment [5], the system named is M14 melanoma.
The test system of experiment [6] is HOP-92 NSCLC.
Experiment [7] has as its system SK-MEL-28 melanoma.
The test system of experiment [8] is IGROV1 ovarian.
Experiment [9] relates to SNB-75 CNS.

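Cells were grown in 96-well plates and exposed to each compound for 48 hours at five concentrations; endpoints were interpolated linearly between bracketing concentrations, or set to the highest concentration if not reached. Here, GI50 denotes the concentration required for 50% inhibition of growth. Definition used: TGI = concentration required for complete inhibition of growth.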

As to `Cc1cc2c(cc1Cl)SC1=NN(C)S(=O)N1S2(=O)=O` (configuration not stated), the GI50 in experiment [1] is above 100 µM; in [2], above 100 µM; in [3], above 100 µM; in experiment [4], above 100 µM; in experiment [5], above 100 µM; in experiment [6], 25.5 µM. Moreover, the values for the GI50 in experiment [7], in experiment [8] and in experiment [9] were above 100 µM, above 100 µM and 58.7 µM, respectively. For the same molecule, the TGI is above 100 µM in experiment [1]; above 100 µM in experiment [2]; above 100 µM in [3]; above 100 µM in experiment [4]; above 100 µM in [5]; 87 µM in experiment [6]. The TGI in experiment [7], in [8] and in [9] was above 100 µM throughout.

Consider `O=C(O)c1nn(-c2ccccc2-c2n[nH]c(=O)[nH]c2=O)c(=O)[nH]c1=O`, for which the TGI in [1], in experiment [2], in experiment [3], in experiment [4], in experiment [5] and in [6] was above 100 µM in each case. Further, the TGI in experiment [7], in experiment [8] and in [9] was above 100 µM each time.

The values above are taken from PubChem BioAssay (NCI).
